{
  "source": "patent US20020064883A1",
  "about": "“Measurement and quantification of 17 ketosteroid-sulfates as a biomarker of biological age” (priority 2000, published 2002)",
  "system": "Anabolic/Catabolic Index (ACI)",
  "test": "Human clinical trial: effect of treatment on urinary Anabolic/Catabolic Index (ACI)",
  "assay_type": "in vivo",
  "description": "The concentration of 17-KS-S in the sample was calculated from the ratio of the peak area of the compound of interest to that of the external standard multiplied by its concentration. The concentration of creatinine in urine was measured by a colorimetric method. The urinary Anabolic/Catabolic Index (ACI=X/Y) was calculated as a ratio of total 17-ketosteroid sulfate concentration (X, ng/μL) to creatinine concentration (Y, μg/μL).\nThere were two objectives in this example. The first was to investigate the ACI-age relationship using baseline information of ACI and the second was to investigate effects of four treatment groups on ACI.\nThere were 71 individuals for treatment allocation. They were identified with a number of 1 through 72 (69 was not used). Of these 71 individuals, five (subject identification numbers=3, 22, 24, 26 and 65) were not included in the data set of ACI measurements. Consequently, there were 66 individuals represented in the ACI information. Among the 66 individuals, three (subject ID=1, 9 and 60) had only baseline measurements. These three individuals contributed to the analysis of age/ACI relationship only. Therefore, the data set for looking at treatment effects consisted of 63 individuals. Not all of the 63 individuals have six serial observations.\nA 24-hour urine specimen was collected from each individual before treatment. The urine specimens were quickly aliquoted, frozen, and immediately shipped on dry ice by overnight service for analysis. A ratio of total 17-ketosteroid sulfate concentration (ng/μL) to creatinine concentration (mg/mL) was calculated and expressed as ACI. Subsequent to treatment urine specimens were collected and analyzed at 24 hours. […] The fitted line has a negative slope (estimate of the slope is −0.061239 and is statistically significant from zero with p-value being equal to 0.0034.). Pearson correlation is estimated to be −0.35510 (p=0.0034). These findings indicate that ACI level decreases with ages between 40 and 65.\nThis part of the analysis was performed to determine if any of three different treatments affect the ACI level. That is to check whether the ACI level changes under and after termination of treatment. There were four treatment groups, referred to as groups 1-4. The individuals in Group 1 were given a placebo. The individuals in Group 2 were treated with 7-keto DHEA (25 mg/day dosage). The individuals in Group 3 were treated with Longevity Signal Formula (LSV) (2.008 mg/day dosage). The individuals in Group 4 were treated with Longevity Signal Formula (LSV) and Renewal Herbal Formula (Renewal).\nFIG. 5 illustrates the plots of the individual profile for each treatment group for weeks 1-5. Each individual's serial observations are connected with a line to emphasize the trend over time. Measurements at week zero represent ACI prior treatment. Measurements at weeks 1-4 represent the ACI level after receiving treatments for 1-4 weeks respectively. Measurements at week 5 represent the ACI level three days after termination of treatment. FIG. 6 plots the mean responses at each point in time plus two standard errors.",
  "data": [
    {"compound": "C[C@]12CC[C@H](O)CC1=CC(=O)[C@@H]1[C@@H]2CC[C@]2(C)C(=O)CC[C@@H]12", "note": "[7-keto DHEA]", "values": [
      {"measurement": "Effect of treatment on ACI level (in words)", "setting": "under treatment, weeks 1-4 vs baseline", "result": "does not change the ACI level at all"},
      {"measurement": "Mean of difference in ACI", "setting": "week 1 − week 0 (week 0 = baseline; paired t-test)", "result": "−0.04"},
      {"measurement": "Mean of difference in ACI", "setting": "week 2 − week 0", "result": 0.20},
      {"measurement": "Mean of difference in ACI", "setting": "week 2 − week 1", "result": 0.23},
      {"measurement": "Mean of difference in ACI", "setting": "week 3 − week 0", "result": "−0.12"},
      {"measurement": "Mean of difference in ACI", "setting": "week 3 − week 1", "result": "−0.08"},
      {"measurement": "Mean of difference in ACI", "setting": "week 3 − week 2", "result": "−0.31"},
      {"measurement": "Mean of difference in ACI", "setting": "week 4 − week 0", "result": "−0.12"},
      {"measurement": "Mean of difference in ACI", "setting": "week 4 − week 1", "result": "−0.09"},
      {"measurement": "Mean of difference in ACI", "setting": "week 4 − week 2", "result": "−0.32"},
      {"measurement": "Mean of difference in ACI", "setting": "week 4 − week 3", "result": "−0.01"},
      {"measurement": "Mean of difference in ACI", "setting": "week 5 − week 0 (week 5 = three days after termination of treatment)", "result": "−0.10"},
      {"measurement": "Mean of difference in ACI", "setting": "week 5 − week 1", "result": "−0.07"},
      {"measurement": "Mean of difference in ACI", "setting": "week 5 − week 2", "result": "−0.30"},
      {"measurement": "Mean of difference in ACI", "setting": "week 5 − week 3", "result": 0.01},
      {"measurement": "Mean of difference in ACI", "setting": "week 5 − week 4", "result": 0.02}
    ]}
  ]
}
